Biological target: T1, human OX2R (Homo sapiens, UniProt O43614)
T1 construct: expressed in transfected cells; host or cells: Chinese hamster ovary (CHO) cells, kept under G418 selection
T1 sequence (O43614 1-444): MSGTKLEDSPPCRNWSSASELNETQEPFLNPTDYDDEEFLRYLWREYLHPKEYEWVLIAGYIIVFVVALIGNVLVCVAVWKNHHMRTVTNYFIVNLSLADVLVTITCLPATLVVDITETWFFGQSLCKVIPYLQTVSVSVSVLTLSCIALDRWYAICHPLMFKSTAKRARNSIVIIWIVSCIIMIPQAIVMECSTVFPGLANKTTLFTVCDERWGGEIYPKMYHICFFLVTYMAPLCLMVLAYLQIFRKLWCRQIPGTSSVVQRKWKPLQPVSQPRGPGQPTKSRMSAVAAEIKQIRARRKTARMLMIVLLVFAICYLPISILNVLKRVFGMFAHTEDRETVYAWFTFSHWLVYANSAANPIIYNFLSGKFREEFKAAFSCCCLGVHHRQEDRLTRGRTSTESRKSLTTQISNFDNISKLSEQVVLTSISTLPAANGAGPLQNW
Assay: IPOne (IP-One) orexin receptor agonist assay in CHO cells expressing human OX2R
Type: cell-based
Settings: for EC50: CHO cells expressing human OX2R, IP-One detection, 2 hours incubation, four parameter logistic fit, read-out: OX2R Potency, EC50; for % max agonist effect (Emax): human OX2R, percentage of sample raw value/mean max effect (reference compound at 1 uM with 100% activity)

Compound | EC50 [nM] | % max agonist effect (Emax) [%]
CS(=O)(=O)N[C@H]1CCN(c2ccc(C(F)F)cc2F)[C@H]1CO[C@H]1CC[C@@H](c2ccccc2)CC1 [Example 22, N-((2R,3S)-1-(4-(difluoromethyl)-2-fluorophenyl)-2-((((CIS)-4-phenylcyclohexyl)oxy)methyl)pyrrolidin-3-yl)methanesulfonamide] | > 10000 | 57.5
CS(=O)(=O)N[C@H]1CCCN(c2nccc(O)c2F)[C@H]1CO[C@H]1CC[C@@H](c2ccccc2)CC1 [Example 158, N-((2R,3S)-1-(3-fluoro-4-hydroxypyridin-2-yl)-2-((((CIS)-4-phenylcyclohexyl)oxy)methyl)piperidin-3-yl)methanesulfonamide] | 32.5 | 99.7
COC[C@@H]1C[C@H](NS(C)(=O)=O)[C@H](CO[C@H]2CC[C@@H](c3cccc(F)c3)CC2)N1c1cc(O)c(F)cn1 [Example 85, N-((2R,3S,5S)-1-(5-fluoro-4-hydroxypyridin-2-yl)-2-((((CIS)-4-(3-fluorophenyl)cyclohexyl)-oxy)methyl)-5-(methoxymethyl)pyrrolidin-3-yl)methanesulfonamide] | 0.54 | 101.1

Now from value to compound:

EC50 [nM] | % max agonist effect (Emax) [%] | Compound
123 | 100.9 | Cc1cnc(N2CC[C@H](NS(C)(=O)=O)[C@@H]2CO[C@H]2CC[C@@H](c3ccccc3)CC2)cn1 [Example 65, N-((2R,3S)-1-(5-methylpyrazin-2-yl)-2-((((CIS)-4-phenylcyclohexyl)oxy)methyl)pyrrolidin-3-yl)methanesulfonamide]
2.6 | 101.5 | Cn1nnnc1N1CC[C@H](NS(C)(=O)=O)[C@@H]1CO[C@H]1CC[C@@H](c2ccccc2)CC1 [Example 31, N-((2R,3S)-1-(1-methyl-1H-tetrazol-5-yl)-2-((((CIS)-4-phenylcyclohexyl)oxy)methyl)pyrrolidin-3-yl)methanesulfonamide]
> 10000 | 61.6 | CS(=O)(=O)N[C@H]1CCN(c2ccncc2CO)[C@H]1CO[C@H]1CC[C@@H](c2ccccc2)CC1 [Example 56, N-((2R,3S)-1-(3-(hydroxymethyl)pyridin-4-yl)-2-((((CIS)-4-phenylcyclohexyl)oxy)methyl)pyrrolidin-3-yl)methanesulfonamide]

From patent publication US12312332B2 (Merck Sharp & Dohme LLC., priority 2019, dated 2025)
